Source: patent US20220288057A1, “CONJOINT THERAPY FOR TREATING SEIZURE DISORDERS” (XENON PHARMACEUTICALS INC., priority 2021, published 2022)
Several values for one entry are separate records, joined by “and”; a condition that tells them apart may be missing. Equal entries are not always repeated.

Columns and labels:
[1] = Plasma and brain concentrations after MES testing (UHPLC-ESI-MS/MS); details: for concentration at 2 h / concentration at 0.5 h: in vivo;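 for all read-outs here: brain and plasma were sampled from mice right after the efficacy test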
in vivo = details: mouse
[2] = Compound A 0.25 mg/kg PO 2 h alone (phenytoin study), 0.25 mg/kg
[3] = Compound A 0.75 mg/kg PO 2 h alone (phenytoin study), 0.75 mg/kg
[4] = Compound A 1 mg/kg PO 2 h alone (levetiracetam study), 1 mg/kg
[5] = Compound A 1 mg/kg PO 2 h alone (phenytoin study), 1 mg/kg
[6] = Compound A 1 mg/kg PO 2 h alone (valproic acid study), 1 mg/kg
[7] = Compound A 2.5 mg/kg PO 2 h alone (phenytoin study), 2.5 mg/kg
[8] = analyte Compound A, 0.25 mg/kg + 2 mg/kg Phenytoin
[9] = analyte Compound A, 0.75 mg/kg + 2 mg/kg Phenytoin
[10] = analyte Compound A, 1 mg/kg + 2 mg/kg Phenytoin
[11] = analyte Compound A, 1 mg/kg PO + 100 mg/kg Valproic Acid IP
[12] = analyte Compound A, 2.5 mg/kg + 2 mg/kg Phenytoin

What does the source list for `Cc1cc(N2CCc3cc(F)ccc3C2)cc(C)c1NC(=O)CC(C)(C)C` [Compound A, N-[4-(6-fluoro-3,4-dihydro-1H-isoquinolin-2-yl)-2,6-dimethylphenyl]-3,3-dimethylbutanamide]?
concentration at 2 h ([1]; CF-1, mouse, po, 4 mg/kg, Concentration Plasma, Compound A 4 mg/kg PO, 2 hr): 83 ng/mL; concentration at 0.5 h ([1]; CF-1, mouse, po, 8 mg/kg, Concentration Brain, Compound A 8 mg/kg PO single dose, tissue collection 0.5 hr): 1090 nM; concentration at 2 h ([1]; CF-1, mouse, po, 8 mg/kg, Concentration Brain, Compound A 8 mg/kg PO single dose, tissue collection 2 hr): 560 nM; concentration at 0.5 h ([1]; CF-1, mouse, po, 8 mg/kg, Concentration Brain, Compound A 8 mg/kg PO, 0.5 hr): 402 ng/g; concentration at 2 h ([1]; CF-1, mouse, po, 8 mg/kg, Concentration Brain, Compound A 8 mg/kg PO, 2 hr): 208 ng/g; concentration at 0.5 h ([1]; CF-1, mouse, po, 8 mg/kg, Concentration Plasma, Compound A 8 mg/kg PO single dose, tissue collection 0.5 hr): 710 nM; concentration at 2 h ([1]; CF-1, mouse, po, 8 mg/kg, Concentration Plasma, Compound A 8 mg/kg PO single dose, tissue collection 2 hr): 430 nM; concentration at 0.5 h ([1]; CF-1, mouse, po, 8 mg/kg, Concentration Plasma, Compound A 8 mg/kg PO, 0.5 hr): 261 ng/mL; concentration at 2 h ([1]; CF-1, mouse, po, 8 mg/kg, Concentration Plasma, Compound A 8 mg/kg PO, 2 hr): 158 ng/mL; Brain concentration, Mean [1, 2]: 0.04 µM; Plasma concentration, Mean [1, 2]: 0.01 μM and 4.3 ng/mL; Brain concentration, Mean [1, 3]: 0.12 µM; Plasma concentration, Mean [1, 3]: 0.03 μM and 11.7 ng/mL; Brain concentration, Mean [1, 4]: 0.06 µM; Plasma concentration, Mean [1, 4]: 0.03 μM and 11.1 ng/mL; Brain concentration, Mean [1, 5]: 0.09 µM; Plasma concentration, Mean [1, 5]: 0.05 μM and 17.0 ng/mL; Brain concentration, Mean [1, 6]: 0.16 µM; Plasma concentration, Mean [1, 6]: 0.066 μM and 24 ng/mL; Concentration Plasma ([1]; Compound A 1 mg/kg PO single dose, tissue collection 2 hr, 1 mg/kg): 0.10 µM; Brain concentration, Mean [1, 7]: 0.39 µM; Plasma concentration, Mean [1, 7]: 45.1 ng/mL and 0.12 μM; Brain concentration, Mean [1, 8]: 0.05 µM; Plasma concentration, Mean [1, 8]: 0.02 μM and 5.6 ng/mL; Brain concentration, Mean [1, 9]: 0.15 µM; Plasma concentration, Mean [1, 9]: 0.04 μM and 16.0 ng/mL; Brain concentration, Mean [1, 10]: 0.10 µM; Plasma concentration, Mean [1, 10]: 0.05 μM and 19.0 ng/mL; Brain concentration, Mean [1, 11]: 0.097 µM; Plasma concentration, Mean [1, 11]: 0.042 μM and 15 ng/mL; Brain concentration, Mean [1, 12]: 0.51 µM; Plasma concentration, Mean [1, 12]: 58.4 ng/mL and 0.16 μM; concentration at 2 h ([1]; mouse, 1 mg/kg, plasma concentration, Compound A 1 mg/kg, mean±SEM, n=15): 66 ± 14 nM; concentration at 2 h ([1]; mouse, Brain concentration, Mean, analyte Compound A, 0.25 mg/kg + 2 mg/kg Phenytoin): 50 nM and 18.4 ng/g; concentration at 2 h ([1]; mouse, Brain concentration, Mean, analyte Compound A, 0.75 mg/kg + 2 mg/kg Phenytoin): 150 nM and 56.7 ng/g; concentration at 2 h ([1]; mouse, Brain concentration, Mean, analyte Compound A, 1 mg/kg + 2 mg/kg Phenytoin): 100 nM and 37 ng/g; concentration at 2 h ([1]; mouse, Brain concentration, Mean, analyte Compound A, 1 mg/kg PO + 100 mg/kg Valproic Acid IP): 97 nM and 36 ng/g; concentration at 2 h ([1]; mouse, Brain concentration, Mean, analyte Compound A, 2.5 mg/kg + 2 mg/kg Phenytoin): 510 nM and 186 ng/g; concentration at 2 h ([1]; mouse, Plasma concentration, Mean, analyte Compound A, 0.25 mg/kg + 2 mg/kg Phenytoin): 20 nM and 5.6 ng/mL; concentration at 2 h ([1]; mouse, Plasma concentration, Mean, analyte Compound A, 0.75 mg/kg + 2 mg/kg Phenytoin): 40 nM and 16 ng/mL; concentration at 2 h ([1]; mouse, Plasma concentration, Mean, analyte Compound A, 1 mg/kg + 2 mg/kg Phenytoin): 50 nM and 19 ng/mL; concentration at 2 h ([1]; mouse, Plasma concentration, Mean, analyte Compound A, 1 mg/kg PO + 100 mg/kg Valproic Acid IP): 42 nM and 15 ng/mL; concentration at 2 h ([1]; mouse, Plasma concentration, Mean, analyte Compound A, 2.5 mg/kg + 2 mg/kg Phenytoin): 160 nM and 58.4 ng/mL; concentration at 2 h ([1]; mouse, mean total brain concentration, analyte Compound A, 1 mg/kg PO + Valproic Acid 30 mg/kg IP): 75 nM and 28 ng/g; concentration at 2 h ([1]; mouse, mean total brain concentration, analyte Compound A, 1 mg/kg PO + Valproic Acid 56 mg/kg IP): 117 nM and 43 ng/g; concentration at 2 h ([1]; mouse, mean total plasma concentration, analyte Compound A, 1 mg/kg PO + Valproic Acid 30 mg/kg IP): 38 nM and 14 ng/mL; concentration at 2 h ([1]; mouse, mean total plasma concentration, analyte Compound A, 1 mg/kg PO + Valproic Acid 56 mg/kg IP): 18 ng/mL and 50 nM; concentration at 2 h ([1]; mouse, po, 0.25 mg/kg, Brain concentration, Mean, Compound A 0.25 mg/kg PO 2 h alone (phenytoin study)): 40 nM and 14.8 ng/g; concentration at 2 h ([1]; mouse, po, 0.25 mg/kg, Plasma concentration, Mean, Compound A 0.25 mg/kg PO 2 h alone (phenytoin study)): 10 nM and 4.3 ng/mL; concentration at 2 h ([1]; mouse, po, 0.75 mg/kg, Brain concentration, Mean, Compound A 0.75 mg/kg PO 2 h alone (phenytoin study)): 120 nM and 43.8 ng/g; concentration at 2 h ([1]; mouse, po, 0.75 mg/kg, Plasma concentration, Mean, Compound A 0.75 mg/kg PO 2 h alone (phenytoin study)): 11.7 ng/mL and 30 nM; concentration at 2 h ([1]; mouse, po, 1 mg/kg, Brain concentration, Mean, Compound A 1 mg/kg PO 2 h alone (levetiracetam study)): 60 nM and 20.9 ng/g; concentration at 2 h ([1]; mouse, po, 1 mg/kg, Brain concentration, Mean, Compound A 1 mg/kg PO 2 h alone (phenytoin study)): 100 nM and 35 ng/g; concentration at 2 h ([1]; mouse, po, 1 mg/kg, Brain concentration, Mean, Compound A 1 mg/kg PO 2 h alone (valproic acid study)): 160 nM and 59 ng/g; concentration at 2 h ([1]; mouse, po, 1 mg/kg, Plasma concentration, Mean, Compound A 1 mg/kg PO 2 h alone (levetiracetam study)): 30 nM and 11.1 ng/mL; concentration at 2 h ([1]; mouse, po, 1 mg/kg, Plasma concentration, Mean, Compound A 1 mg/kg PO 2 h alone (phenytoin study)): 50 nM and 17 ng/mL; concentration at 2 h ([1]; mouse, po, 1 mg/kg, Plasma concentration, Mean, Compound A 1 mg/kg PO 2 h alone (valproic acid study)): 66 nM and 24 ng/mL; concentration at 2 h ([1]; mouse, po, 2.5 mg/kg, Brain concentration, Mean, Compound A 2.5 mg/kg PO 2 h alone (phenytoin study)): 390 nM and 144 ng/g; concentration at 2 h ([1]; mouse, po, 2.5 mg/kg, Plasma concentration, Mean, Compound A 2.5 mg/kg PO 2 h alone (phenytoin study)): 120 nM and 45.1 ng/mL; concentration at 2 h (in vivo): 30 nM and 11.1 ng/mL
